From BindingDB's records for patent WO2022098807 (Merck Sharp &Amp, 2022) come the findings set out here.

SMILES strings stand for the structures. pIC50: −log10 of the molar value.

The target in this assay is Mitogen-activated protein kinase kinase kinase kinase 1 (Homo sapiens, UniProt Q92918). Briefly: HPK1-SLP76 TR-FRET ASSAY. (In TR-FRET formats the signal depends on donor and acceptor labels being close together.)
Chain of Mitogen-activated protein kinase kinase kinase kinase 1 (Q92918 whole entry): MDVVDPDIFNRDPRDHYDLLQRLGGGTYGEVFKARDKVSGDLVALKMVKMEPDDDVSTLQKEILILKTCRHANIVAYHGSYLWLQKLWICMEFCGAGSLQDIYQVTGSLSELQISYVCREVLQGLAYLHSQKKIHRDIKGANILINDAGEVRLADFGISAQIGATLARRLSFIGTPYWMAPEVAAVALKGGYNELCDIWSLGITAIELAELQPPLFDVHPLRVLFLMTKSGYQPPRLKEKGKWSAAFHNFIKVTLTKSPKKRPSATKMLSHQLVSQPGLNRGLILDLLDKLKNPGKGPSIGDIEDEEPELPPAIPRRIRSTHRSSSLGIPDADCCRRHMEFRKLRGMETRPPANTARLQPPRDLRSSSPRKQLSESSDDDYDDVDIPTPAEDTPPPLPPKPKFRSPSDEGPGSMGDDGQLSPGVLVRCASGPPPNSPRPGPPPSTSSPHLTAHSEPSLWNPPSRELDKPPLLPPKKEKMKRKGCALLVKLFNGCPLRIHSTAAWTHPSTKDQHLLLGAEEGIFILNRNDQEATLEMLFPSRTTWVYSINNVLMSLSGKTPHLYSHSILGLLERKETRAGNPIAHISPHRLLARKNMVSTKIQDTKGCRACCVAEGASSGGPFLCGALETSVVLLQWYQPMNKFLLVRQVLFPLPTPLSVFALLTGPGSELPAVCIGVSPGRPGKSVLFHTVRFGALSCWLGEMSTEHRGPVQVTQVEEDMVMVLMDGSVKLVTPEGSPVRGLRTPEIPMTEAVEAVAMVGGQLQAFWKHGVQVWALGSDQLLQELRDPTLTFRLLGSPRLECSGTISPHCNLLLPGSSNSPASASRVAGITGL
Broadly, the pIC50 is the IC50 on a negative log10 scale, so that one unit is a factor of ten. For the compound `Cc1c(-c2cc3nc(Nc4cnn(C)c4C)ncc3c(N)c2F)cnc2c1NCCO2` [WO2022098807, Example 2-30], the pIC50 was 10.30.
The figure for `Cc1c(-c2cc3nc(Nc4cc5n(n4)CCN(C(C)C)C(=O)C5)ncc3c(N)c2F)cnc2c1NCCO2` [WO2022098807, Example 2-20] is 10.22; for `Cc1nn(C)cc1Nc1ncc2c(N)c(F)c(-c3cnc4c(c3C)NCCO4)cc2n1` [WO2022098807, Example 2-34] it is 10.22; for `Cc1c(-c2cc3nc(Nc4cnn(C5(C)CC5)c4)ncc3c(N)c2F)cnc2c1NCCO2` [WO2022098807, Example 2-8] it is 10.05.
`Cc1c(-c2ccc3cnc(Nc4cnn(C5CC6(C5)CC(C5(C)COC5)C6)c4)nc3c2)cnc2c1NCCO2` (stereo not given) [WO2022098807, Example 1-2]: the negative-log IC50 (pIC50) is 9.66.
`Cc1c(-c2cc3nc(Nc4cnn(CC(F)F)c4)ncc3c(N)c2F)cnc2c1NCCO2` [WO2022098807, Example 2-32] gave a pIC50 of 10.30.
The figure for `Cc1c(-c2cc3nc(Nc4cnn([C@@H]5CCN(C)C5=O)c4)ncc3c(N)c2F)cnc2c1NCCO2` [WO2022098807, Example 2-19] is 9.82; for `Cc1c(-c2c(F)c(N)c3cnc(Nc4cnn([C@@H]5CCN(C)C5)c4)nc3c2Cl)cnc2c1NCCO2` [WO2022098807, Example 2-48] it is 9.77.
Compound `Cc1c(-c2c(F)c(N)c3cnc(Nc4cnn([C@H]5CCN(C)C5)c4)nc3c2Cl)cnc2c1NCCO2` [WO2022098807, Example 2-47] showed a negative logarithm of the IC50 (pIC50) of 9.74.
The figure for `CNC(=O)C12CC(n3cc(Nc4ncc5c(N)c(F)c(-c6cnc7c(c6C)NCCO7)cc5n4)cn3)(C1)C2` [WO2022098807, Example 2-28] is 10.05; for `Cc1c(-c2c(F)c(N)c3cnc(Nc4cnn(C5CCN(C)CC5)c4)nc3c2Cl)cnc2c1NCCO2` [WO2022098807, Example 2-44] it is 10.30; for `Cc1c(-c2cc3nc(Nc4cnn(C5CCNCC5)c4)ncc3c(N)c2F)cnc2c1NCCO2` [WO2022098807, Example 2-11] it is 10.15.
Compound `Cc1c(-c2ccc3cnc(Nc4cc5n(n4)CCN(C(C)(C)O)C(=O)C5)nc3c2)cnc2c1NCCO2` [WO2022098807, Example 1-8] had a pIC50 of 9.17.
The figure for `Cc1c(-c2c(F)c(N)c3cnc(Nc4cnn(C5CC5)c4C)nc3c2Cl)cnc2c1NCCO2` [WO2022098807, Example 2-45] is 9.74; for `Cc1c(-c2cc3nc(Nc4cnn(C5COC5)c4)ncc3c(N)c2F)cnc2c1NCCO2` [WO2022098807, Example 2-39] it is 10.30; for `Cc1c(-c2cc3nc(Nc4cnn5c4CCC5)ncc3c(N)c2F)cnc2c1NCCO2` [WO2022098807, Example 2-35] it is 10.30.
The same measure for `Cc1c(-c2cc3nc(Nc4cnn([C@H]5CCN(C)C5=O)c4)ncc3c(N)c2F)cnc2c1NCCO2` [WO2022098807, Example 2-21]: 9.46; for `CCn1cc(Nc2ncc3c(N)c(F)c(-c4cnc5c(c4C)NCCO5)cc3n2)cn1` [WO2022098807, Example 2-22]: 10.10; for `Cc1c(-c2cc3nc(Nc4cnn(C56CC(C(C)(C)O)(C5)C6)c4)ncc3c(N)c2F)cnc2c1NCCO2` [WO2022098807, Example 2-46]: 10.30.
Regarding `Cc1cnsc1Nc1ncc2c(N)c(F)c(-c3cnc4c(c3C)NCCO4)cc2n1` [WO2022098807, Example 2-37], the negative-log IC50 (pIC50) was 10.15.
